Values of other authors as cited in patent US20230149389A1, “METHODS OF REDUCING MORTALITY IN SUBJECTS SUFFERING FROM AN UNDERLYING DISEASE OR CONDITION BY ADMINISTRATION OF METHYLNALTREXONE” (Bausch Health Ireland Limited, priority 2020, published 2023).

Key:
[1] = cited from earlier work
murine model of sepsis = conditions: mouse, in vivo; cited from earlier work
[2] = system: human dermal endothelial and pulmonary cells; conditions: at clinically relevant levels; cited from earlier work

C[C@H]1CN(C[C@H](Cc2ccccc2)C(=O)NCC(=O)O)CC[C@@]1(C)c1cccc(O)c1 [alvimopan]
incidence rate for MI ([1]; placebo 0%): 1.30%
incidence rate for cardiovascular events ([1]; placebo 1.12%): 2.60%

CN1CC[C@]23c4c5ccc(O)c4O[C@H]2[C@@H](O)C=C[C@H]3[C@H]1C5 [morphine]
mortality in murine model of sepsis (murine model of sepsis): increased mortality
angiogenic activity relative to vascular endothelial growth factor [2]: 70%
